Converted amounts (≈) assume the structure as drawn. Square brackets hold non-standard residues; d marks the D form. Peptide text beside a SMILES is read from it. 1Nal = N[C@@H](Cc1cccc2ccccc12)C(=O)O
Columns and labels:
[1] = system: C. albicans designated CA-1, Strain SLU-1; details: designated CA-1, Strain SLU-1, 18 h
Description: In each broth assay screening procedure, a colony of C. albicans designated CA-1, Strain SLU-1 that was received from the laboratories of G. Matuschak and A. Lechner, St. Louis University Hospital, St. Louis, Mo., where the strain was maintained, was inoculated into a tube containing 5 mL Sabouraud Dextrose broth (2% dextrose, 1% neopeptone) and incubated overnight at 37° C. with shaking. The overnight culture was diluted 1:50 into 5 mL of fresh broth and incubated for 3 hours at 37° C. Organisms were pelleted by centrifugation in a Beckman J-6M centrifuge for 5 minutes at 3000 rpm (1500×g) and the pellets were resuspended in 5 mL phosphate buffered saline (PBS) and the optical density at 570 nm was determined. On the basis of the determination that one OD unit equals 3×10^7 colony forming units/mL, yeast cells were diluted to 2×10^6 cells/mL in Sabouraud Dextrose broth.
Domain III peptides derived from or based on BPI to be screened were originally constituted in Dulbecco's-PBS, were diluted to 100 μg/mL in broth and were serially diluted 2-fold into wells of a 96 well sterile, flat bottom, non-pyrogenic tissue culture plate (Costar, Cambridge, Mass.). All assays were performed in triplicate. 2×10^5 organisms were added at 100 μl per well; final volume was 200 μL/well; the plate was incubated on a shaker at 37° C. for 18 hours; and the optical densities for each well were read at 590 nm. […] The broth assay data may be set out in terms of minimum inhibitory concentration (MIC), i.e. the lowest concentration required to reduce the optical density at 590 nm to below 0.1.

[2] = system: C. albicans (CA-1, Strain SLU-1); assay: Radial diffusion assay; type: cell-based, Candida albicans; details: pmoles of peptide added to well to achieve a 30 mm^2 zone, PROBIT analysis, crude or purified (P′) peptide
Summary of the method: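 Peptides, serially diluted 2-fold in D-PBS (top ~1 mg/mL), diffused 3 h at 37° C into pH 7.4 phosphate-buffered agarose seeded with 1×10^6 CFU/mL yeast, before overnight growth under a 6% Sabouraud overlayer. Net inhibition zones measured after Coomassie staining; PROBIT fit of log pmol vs area gave pmol for 30 mm^2.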

[3] = system: Candida albicans SLU-1; assay: Radial diffusion assay (Example 3), wild type strain; type: cell-based; details: FIG. 2A
Description: (§1) For the radial diffusion assays, Candida albicans SLU-1 were grown as described above and SLU-2G were grown overnight in Sabouraud dextrose broth supplemented with 10 μg/mL amphotericin B and 5 μg/mL ceftriaxone at 37° C. Cultures were diluted 1:25 into fresh, unsupplemented broth and allowed to grow for 5 hours at 37° C. Cells were pelleted at 1,500×g for 5 minutes at 4° C. Supernatant was decanted and replaced with 5 mL of 10 mM phosphate buffer, pH 7.4. After centrifugation the cell pellets were resuspended with 5 mL phosphate buffer for an OD570 determination. One OD570 for SLU-1 cells was 3×10^7 CFU/mL and for SLU-2G cells was 5×10^6 CFU/mL.
(§2) Cells were added to 10 mL of molten, cooled (˜45° C.) underlayer agarose to a concentration of 1×10^6/mL and the suspension was poured into a level square petri plate with gentle rocking to allow even distribution and solidification to a uniform thickness of about 1 mm. Wells were cut into the hardened agarose with a sterilize, 3 mm diameter punch with vacuum.
Peptides were two-fold serially diluted with DPBS from a starting concentration of approximately 1 mg/mL. Amphotericin B and nystatin were similarly diluted starting at 100 and 225 μg/mL, respectively. Five μL were added per well and allowed to diffuse at 37° C. for 1.5-2.0 hours. Then 10 mL of molten overlayer agarose were added and the plates were incubated inverted at 37° C. overnight. Plates were stained with a dilute Coomassie solution, inhibition zones were measured with calipers and net areas were calculated, then converted to pmol values by PROBIT analysis. The results of a representative experiment are shown in FIG. 2A for the SLU-1 strain and FIG. 2B for the SLU-2G strain. In FIGS. 2A and 2B, the fungicidal activity is represented for XMP.13 as open circles; for XMP.37 as closed circles; for XMP.97 as open triangles; for XMP.127 as closed triangles; for amphotericin B as open squares; and for nystatin as closed squares. The pmol for a 30 mm^2 zone of inhibition were calculated to be: for XMP.13, 689 pmol against SLU-1 and 129 pmol against SLU-2G; for XMP.37, 231 pmol against SLU-1 and 75 pmol against SLU-2G; for XMP.97, 670 pmol against SLU-1 and 161 pmol against SLU-2G; for XMP.127, 935 pmol against SLU-1 and 116 pmol against SLU-2G; for amphotericin B, 36 pmol against SLU-1 and >541 pmol for SLU-2G; and for nysttin, 98 pmol against SLU-1 and >1,215 pmol against SLU-2G.

[4] = system: Candida albicans SLU-2G amphotericin B-resistant strain; assay: Radial diffusion assay (Example 3), amphotericin B-resistant strain; type: cell-based; details: FIG. 2B
Description: Domain III derived peptides were tested for their fungicidal activity on amphotericin resistant Candida. Resistant colonies of Candida were isolated using a gradient plate technique. A slanted Sabouraud dextrose agar plate was poured and allowed to harden. The plate was made level and additional agar supplemented with nystatin (Sigma, St. Louis, Mo., cat. no. N-3503) at a concentration of 10 μg/mL was poured. Cells from the CA-1 colony of Candida albicans SLU-1 strain described in Example 2 (10^7 cells in a volume of 100 μL) were spread over the plate and incubated at […] overnight.
as §1, with “determination.” for “determination. One OD570 for SLU-1 cells was 3×10^7 CFU/mL and for SLU-2G cells was 5×10^6 CFU/mL.”
as §2
Peptides were two-fold serially diluted with DPBS from a starting concentration of approximately 1 mg/mL. […] Five μL were added per well and allowed to diffuse at 37° C. for 1.5-2.0 hours. Then 10 mL of molten overlayer agarose were added and the plates were incubated inverted at 37° C. overnight. Plates were stained with a dilute Coomassie solution, inhibition zones were measured with calipers and net areas were calculated, then converted to pmol values by PROBIT analysis.

[5] = system: Candida albicans SLU-1 strain; assay: Serum stability, anti-fungal activity after serum incubation by radial diffusion bioassay; type: in vitro ADME, rat or human serum
Description: (§3) For these serum stability experiments, peptides were prepared by solid phase peptide sythesis and purified to 94% or greater purity as described in Example 1. Blood was collected from metaphane anesthesized rats by aortic bleed into Vacutainer™ tubes and allowed to clot at room temperature for approximately 30 minutes, then centrifuged at 3000 rpm (about 1000×g) for 10 minutes at room temperature and the serum aspirated. In addition, frozen human serum (North American Biologics, Inc., Miami, Fla., cat. no. 2140, lot no. 94115) was thawed at room temperature and filtered through a 0.45 μm membrane before use.
(§4) A 1 mg/mL solution of an exemplary XMP peptide to be tested was added to an equal volume of either rat or human serum described above and maintained at 37° C. At 0, 1, 2, and 4 hours, 100 μL were removed and processed by solid phase extraction for HPLC analysis as follows. Serum samples were prepared for HPLC using C-18 Sep-Pak cartridges (1 mL cartridge with 100 mg of sorbent, Waters Corp., Milford, Mass.). One hundred μL of serum sample were added to an equal volume of 1% TFA and mixed for 30 seconds on a Vortex mixer. The sample was then applied to a C-18 Sep-Pak cartridge that had been conditioned by washing with 1 mL of methanol followed by 1 mL Milli-Q water. Weakly reed components were eluted by washing with 1 mL of 0. 1% TFA. The bound peptide was eluted with two volumes of 250 μL 80% acetonitrile/0.065% TFA.
(§5) The peptides identified and purified after serum incubation as described above were subjected to N-terminal peptide sequencing performed on an Applied Biosystems Model 477A/120A sequencer and to electrospray ionization mass spectrometry (ESI/MS) performed using a VG Biotech Bio-Q Mass Spectrometer. In addition, the peptides identified and purified after serum incubation as described above were also tested for their anti-fungal activity in a radial diffusion bioassay with Candida albicans SLU-1 strain as described in Example 2.

[6] = system: Candida krusei; assay: Radial diffusion assay, Candida species (Table 2); type: cell-based
Description: (§6) The anti-fungal activity of Domain III derived peptides was also evaluated in vitro against a variety of fungal species, including Candida glabrata, Candida krusei, Candida lusitaniae, Candida parapsilosis, and Candida tropicalis. For these experiments, one colony of each of the above-listed Candida strains was picked from a Sabouraud's dextrose agar (SDA) plate and inoculated into 5 mL of Sabouraud's dextrose broth (SDB, 2% dextrose and 1% neopeptone) or, for C. krusei, Yeast Malt broth (YM, Becton Dickenson, Cockeysville, Md., cat no. BL 11405) in 12 mL polyproplyene snap-cap tubes. The tube cultures were incubated overnight with shaking at 37° C.
(§7) Cultures were harvested when the OD570 of a 1:10 dilution was greater than or equal to the following values: 0.083 for Candida glabrata, 0.154 for Candida krusei, 0.117 for Candida lusitaniae, 0.076 for Candida parapsilosis, and 0.192 for Candida tropicalis. Cells were centrifuged for 7 minutes in an Eppendorf microfuge at 3,000 rpm (about 1,500 g). The cell pellet was resuspended in 1 mL PBS and approximately 1×10^7 cells in about 0.5 mL were added to 10 mL of cooled underlay agar (3% SBD, 1% agarose, 0.02% Tween 20, 10 mM sodium phosphate buffer, pH 7.4 at about 45° C.). The suspension was poured into square petri plates, allowed to solidify, and wells cut as described above.
(§8) Peptides were two-fold serially diluted with D-PBS from about 20 μL of a starting concentration of approximately 1 mg/mL. Five μL of peptide dilution were added per well and allowed to diffuse for at least about 30 minutes into the agar at […] (to allow complete diffusion). Then 10 mL of molten overlayer agarose (6% SDB, 1% agarose, 10 mM sodium phosphate buffer, pH 7.4 at about 45° C.) were added and the plates were incubated inverted at […] overnight. Plates were stained with a dilute Coomassie solution, inhibition zones were measured with calipers and net areas were calculated, then converted to pmole values by PROBIT analysis.

[7] = system: Candida lusitaniae; assay: Radial diffusion assay, Candida species (Table 2); type: cell-based
Description: as §6, §7, §8

[8] = system: Candida tropicalis; assay: Radial diffusion assay, Candida species (Table 2); type: cell-based
Description: as §6, §7, §8

[9] = system: Candida parapsilosis; assay: Radial diffusion assay, Candida species (Table 2); type: cell-based
Description: as §6, §7, §8

[10] = system: Candida glabrata; assay: Radial diffusion assay, Candida species (Table 2); type: cell-based
Description: as §6, §7, §8

[11] = system: Candida albicans; assay: Radial diffusion assay, Candida species (Table 2); type: cell-based; details: higher effective concentration of agarose than Table 1
[12] = Serum stability, anti-fungal activity after serum incubation by radial diffusion bioassay; type: in vitro ADME, rat or human serum; details: Activity in Serum t ½ (hr.)
Description: as §3, §4, §5

With `CC[C@H](C)[C@H](NC(=O)[C@H](CC(C)C)NC(=O)[C@H](Cc1c[nH]c2ccccc12)NC(=O)CNC(=O)[C@@H](NC(=O)[C@H](CCCCN)NC(=O)[C@H](CO)NC(=O)[C@@H](N)CCCCN)C(C)C)C(=O)N[C@@H](CCC(N)=O)C(=O)N[C@@H](Cc1cccc2ccccc12)C(=O)N[C@@H](Cc1ccccc1)C(=O)N[C@@H](Cc1c[nH]cn1)C(=O)N[C@@H](CCCCN)C(=O)N[C@@H](CCCCN)C(N)=O` [XMP.143] (H-KSKVGWLIQ[1Nal]FHKK-NH2) the “minimum inhibitory concentration (MIC), lowest concentration required to reduce the optical density at 590 nm to below 0.1” value [1] was 25.0 µg/mL (≈ 13.9 µM) and the “C. albicans pmol/30 mm^2 zone” value [2] was >2839 pmol/30 mm^2 zone.

With `C[C@@H]1[C@H](O)[C@@H](C)/C=C/C=C/CC/C=C/C=C/C=C/C=C/C(O[C@H]2O[C@H](C)[C@@H](O)[C@H](N)[C@@H]2O)CC2O[C@](O)(CC(O)C(O)CCC(O)CC(O)CC(O)CC(=O)O[C@H]1C)CC(O)C2C(=O)O` (some centres unmarked) [nystatin, reference compound] the “pmol for a 30 mm^2 zone of inhibition against SLU-1” value [3] was 98 pmol and the “pmol for a 30 mm^2 zone of inhibition against SLU-2G” value [4] was > 1,215 pmol.

In the case of H-HHWLIQLHH-NH2 [XMP.337], the “Activity in Serum t ½ (hr.)” value [5] is reported as “inactive”, the “Anti-fungal activity: pmol/30 mm^2 zone, Candida krusei” value [6] is reported as 5,339 pmol/30 mm^2 zone and the “Anti-fungal activity: pmol/30 mm^2 zone, Candida lusitaniae” value [7] is reported as 6,928 pmol/30 mm^2 zone. For the same compound, the “Anti-fungal activity: pmol/30 mm^2 zone, Candida tropicalis” value [8] was “b (No detectable activity up to 5 μg/well)”, the “Anti-fungal activity: pmol/30 mm^2 zone, Candida parapsilosis” value [9] was “b (No detectable activity up to 5 μg/well)” and the “Anti-fungal activity: pmol/30 mm^2 zone, Candida glabrata” value [10] was “b (No detectable activity up to 5 μg/well)”. The “Anti-fungal activity: pmol/30 mm^2 zone, Candida albicans” value [11] was “b (No detectable activity up to 5 μg/well)”, the “C. albicans pmol/30 mm^2 zone” value [2] was “b (No detectable activity up to 5 μg/well)” and the “C. albicans pmol/30 mm^2 zone” value ([2]; listed as XMP.337P′) was >3,350 pmol/30 mm^2 zone.

For H-KSKVGWLIQWFHKK-NH2 [XMP.142], the “minimum inhibitory concentration (MIC), lowest concentration required to reduce the optical density at 590 nm to below 0.1” value [1] was 12.5 µg/mL and the “C. albicans pmol/30 mm^2 zone” value [2] was 1244 pmol/30 mm^2 zone.

For H-KSKVGYLIQLFHKK-NH2 [XMP.139], the half-life at 0.5 mg/mL [12] was 10.6 h, the “minimum inhibitory concentration (MIC), lowest concentration required to reduce the optical density at 590 nm to below 0.1” value [1] was 6.25 µg/mL and the “C. albicans pmol/30 mm^2 zone” value [2] was 323 pmol/30 mm^2 zone.

With H-KSKVKFLIQLFHKK-NH2 [XMP.138] the “minimum inhibitory concentration (MIC), lowest concentration required to reduce the optical density at 590 nm to below 0.1” value [1] was 3.13 µg/mL and the “C. albicans pmol/30 mm^2 zone” value [2] was 257 pmol/30 mm^2 zone.

Source: patent US6664231B1, “Anti-fungal peptides” (priority 1993, dated 2003)
